Results taken from ChEMBL document CHEMBL1909046, “DrugMatrix in vitro pharmacology data”.

Assays:
[1] = DRUGMATRIX: beta-Lactamase enzyme inhibition (substrate: Nitrocefin); set-up: species or system Bacillus cereus; settings: Not Active = under 50% inhibition at 10 µM
[2] = target: T1, Thromboxane-A synthase (Homo sapiens, UniProt P24557); test: biochemical; format: tissue-based, Platelet; settings: platelet;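 also: enzyme inhibition assay with PGH2 supplied as substrate; in other assays of this panel Not Active means under 50% inhibition at 10 µM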
T1 sequence (P24557 whole entry): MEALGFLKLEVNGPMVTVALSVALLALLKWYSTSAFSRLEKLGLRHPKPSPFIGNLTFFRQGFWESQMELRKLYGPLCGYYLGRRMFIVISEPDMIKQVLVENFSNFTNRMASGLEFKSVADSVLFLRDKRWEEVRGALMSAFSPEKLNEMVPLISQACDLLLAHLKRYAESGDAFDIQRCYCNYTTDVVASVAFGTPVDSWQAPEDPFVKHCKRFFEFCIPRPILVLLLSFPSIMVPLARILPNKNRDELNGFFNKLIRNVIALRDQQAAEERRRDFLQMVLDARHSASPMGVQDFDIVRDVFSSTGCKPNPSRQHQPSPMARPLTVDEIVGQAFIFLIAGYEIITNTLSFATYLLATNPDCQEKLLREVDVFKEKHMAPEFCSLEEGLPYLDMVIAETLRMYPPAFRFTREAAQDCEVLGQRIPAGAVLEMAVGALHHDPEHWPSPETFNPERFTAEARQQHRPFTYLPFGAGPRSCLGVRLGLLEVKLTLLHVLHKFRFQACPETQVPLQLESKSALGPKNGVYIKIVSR

[3] = target: D(1A) dopamine receptor (Homo sapiens, UniProt P21728); test: DRUGMATRIX: Dopamine D1 radioligand binding (ligand: [3H] SCH-23390); format: cell membranes, Membrane; settings: cho; Not Active = under 50% inhibition at 10 µM
Chain of D(1A) dopamine receptor (P21728 whole entry): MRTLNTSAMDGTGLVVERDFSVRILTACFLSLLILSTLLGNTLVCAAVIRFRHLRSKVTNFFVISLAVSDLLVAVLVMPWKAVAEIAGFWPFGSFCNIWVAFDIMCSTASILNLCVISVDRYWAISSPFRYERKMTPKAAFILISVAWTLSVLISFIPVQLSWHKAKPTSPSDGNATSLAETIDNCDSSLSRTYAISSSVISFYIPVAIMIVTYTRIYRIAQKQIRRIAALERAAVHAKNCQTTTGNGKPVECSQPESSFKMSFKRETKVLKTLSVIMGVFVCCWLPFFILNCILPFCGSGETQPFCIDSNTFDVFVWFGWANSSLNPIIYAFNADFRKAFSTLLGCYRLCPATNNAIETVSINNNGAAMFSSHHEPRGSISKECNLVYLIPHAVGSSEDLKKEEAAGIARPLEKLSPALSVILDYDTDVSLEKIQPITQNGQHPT

[4] = DRUGMATRIX: Glutamate, Kainate radioligand binding (ligand: [3H] Kainic acid); format: cell membranes, Rattus norvegicus, Wistar, Brain, Membrane; settings: Not Active = under 50% inhibition at 10 µM
[5] = target: Insulin receptor (Rattus norvegicus, UniProt P15127); format: cell membranes, Wistar, Liver, Membrane; also: in other assays of this panel Not Active means under 50% inhibition at 10 µM
Chain of Insulin receptor (P15127 27-759 limits assumed): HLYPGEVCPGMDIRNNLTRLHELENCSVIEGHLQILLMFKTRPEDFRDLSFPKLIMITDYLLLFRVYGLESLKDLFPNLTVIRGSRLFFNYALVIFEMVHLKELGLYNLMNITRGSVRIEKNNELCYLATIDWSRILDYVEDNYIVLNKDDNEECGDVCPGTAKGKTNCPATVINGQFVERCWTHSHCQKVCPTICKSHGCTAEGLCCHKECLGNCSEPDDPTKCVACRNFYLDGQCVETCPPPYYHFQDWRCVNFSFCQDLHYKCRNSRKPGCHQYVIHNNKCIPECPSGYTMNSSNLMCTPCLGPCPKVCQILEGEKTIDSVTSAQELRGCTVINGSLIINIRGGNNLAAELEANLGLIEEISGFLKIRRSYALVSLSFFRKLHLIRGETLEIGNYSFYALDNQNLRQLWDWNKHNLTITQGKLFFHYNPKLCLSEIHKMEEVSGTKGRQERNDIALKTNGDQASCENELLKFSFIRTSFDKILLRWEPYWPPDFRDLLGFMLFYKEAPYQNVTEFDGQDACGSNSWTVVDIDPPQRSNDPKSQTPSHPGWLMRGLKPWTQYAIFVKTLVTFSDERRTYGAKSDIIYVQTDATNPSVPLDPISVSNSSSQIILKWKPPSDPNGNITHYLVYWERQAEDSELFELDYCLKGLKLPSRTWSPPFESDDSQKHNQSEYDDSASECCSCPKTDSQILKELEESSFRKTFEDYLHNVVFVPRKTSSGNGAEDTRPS
Chain of Insulin receptor (P15127 764-1383 limits assumed): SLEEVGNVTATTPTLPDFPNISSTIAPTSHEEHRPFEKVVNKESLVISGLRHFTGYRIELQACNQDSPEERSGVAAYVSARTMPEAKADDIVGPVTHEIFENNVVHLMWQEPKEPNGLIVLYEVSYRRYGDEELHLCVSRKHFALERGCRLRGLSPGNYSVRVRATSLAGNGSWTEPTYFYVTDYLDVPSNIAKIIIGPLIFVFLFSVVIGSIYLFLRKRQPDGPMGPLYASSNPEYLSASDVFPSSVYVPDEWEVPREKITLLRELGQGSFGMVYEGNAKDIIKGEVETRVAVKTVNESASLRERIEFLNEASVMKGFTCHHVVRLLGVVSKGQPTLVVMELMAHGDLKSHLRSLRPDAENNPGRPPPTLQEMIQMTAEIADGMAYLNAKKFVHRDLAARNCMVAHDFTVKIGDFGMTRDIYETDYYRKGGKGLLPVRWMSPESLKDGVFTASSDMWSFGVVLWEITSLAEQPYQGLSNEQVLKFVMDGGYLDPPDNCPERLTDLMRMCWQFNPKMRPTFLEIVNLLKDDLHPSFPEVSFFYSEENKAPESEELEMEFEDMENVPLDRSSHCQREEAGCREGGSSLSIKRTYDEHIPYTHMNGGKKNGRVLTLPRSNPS

[6] = DRUGMATRIX: Platelet-Derived Growth Factor (PDGF) radioligand binding (ligand: [125I] PDGF); format: cell-based; settings: nih3t3; Not Active = under 50% inhibition at 10 µM
[7] = target: T2, Cathepsin G (Homo sapiens, UniProt P08311); format: tissue-based; settings: neutrophil;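 also: inhibition of Cathepsin G enzyme activity, tested on an AMC-conjugated peptide substrate; in other assays of this panel Not Active means under 50% inhibition at 10 µM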
T2 sequence (P08311 whole entry): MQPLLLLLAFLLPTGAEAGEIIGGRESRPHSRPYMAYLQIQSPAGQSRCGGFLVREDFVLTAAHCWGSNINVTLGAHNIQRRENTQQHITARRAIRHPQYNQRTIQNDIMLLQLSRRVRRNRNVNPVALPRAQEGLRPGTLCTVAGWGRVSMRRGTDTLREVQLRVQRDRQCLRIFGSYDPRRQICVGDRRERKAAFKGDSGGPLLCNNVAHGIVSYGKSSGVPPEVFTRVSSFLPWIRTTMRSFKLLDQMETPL

[8] = target: Mitogen-activated protein kinase 14 (Homo sapiens, UniProt Q16539); set-up: species or system Escherichia coli;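 also: inhibition of p38alpha enzyme activity in a biochemical kinase assay, with myelin basic protein serving as substrate; in other assays of this panel Not Active means under 50% inhibition at 10 µM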
Chain of Mitogen-activated protein kinase 14 (Q16539 whole entry): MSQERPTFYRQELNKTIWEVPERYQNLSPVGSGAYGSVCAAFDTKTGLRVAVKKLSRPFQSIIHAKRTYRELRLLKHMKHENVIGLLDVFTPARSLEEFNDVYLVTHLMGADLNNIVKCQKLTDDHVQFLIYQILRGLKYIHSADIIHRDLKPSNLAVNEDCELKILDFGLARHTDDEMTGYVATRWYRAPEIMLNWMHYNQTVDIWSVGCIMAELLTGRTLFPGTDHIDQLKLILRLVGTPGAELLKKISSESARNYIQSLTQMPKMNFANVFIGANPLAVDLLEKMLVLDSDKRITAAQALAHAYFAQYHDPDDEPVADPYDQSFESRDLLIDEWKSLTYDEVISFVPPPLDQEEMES

[9] = target: Cytochrome P450 2E1 (Homo sapiens, UniProt P05181); settings: bti-tn-5b1-4; also: in other assays of this panel Not Active means under 50% inhibition at 10 µM
Chain of Cytochrome P450 2E1 (P05181 whole entry): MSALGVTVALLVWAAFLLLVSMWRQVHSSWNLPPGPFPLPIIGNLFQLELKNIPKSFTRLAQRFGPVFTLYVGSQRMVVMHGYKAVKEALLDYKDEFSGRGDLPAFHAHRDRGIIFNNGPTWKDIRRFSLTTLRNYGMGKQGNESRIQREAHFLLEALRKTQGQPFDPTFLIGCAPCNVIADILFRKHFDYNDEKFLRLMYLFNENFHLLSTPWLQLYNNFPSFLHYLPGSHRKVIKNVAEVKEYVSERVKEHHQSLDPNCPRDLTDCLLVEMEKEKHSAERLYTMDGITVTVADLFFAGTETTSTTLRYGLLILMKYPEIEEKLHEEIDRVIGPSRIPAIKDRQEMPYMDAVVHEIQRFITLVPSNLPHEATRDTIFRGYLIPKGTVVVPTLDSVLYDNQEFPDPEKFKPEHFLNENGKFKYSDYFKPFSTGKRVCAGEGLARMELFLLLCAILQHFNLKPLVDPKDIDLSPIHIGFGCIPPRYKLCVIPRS

O=C(N[C@H](CO)[C@H](O)c1ccc([N+](=O)[O-])cc1)C(Cl)Cl [CHLORAMPHENICOL]
Not Active: IC50 [1] | Ki [1] | IC50 [2] | IC50 [3] | IC50 [4] | Ki [4] | IC50 [5] | IC50 [6] | Ki [6] | IC50 [7] | IC50 [8]

Cn1c(=O)c2c(ncn2CC2OCCO2)n(C)c1=O [DOXOFYLLINE]
Not Active: IC50 [1] | Ki [1] | IC50 [2] | IC50 [3] | IC50 [4] | Ki [4] | IC50 [5] | IC50 [6] | Ki [6] | IC50 [7] | IC50 [8] | IC50 [9] | Ki [9]

CCC1=C[C@@H]2CN(C1)Cc1c([nH]c3ccccc13)[C@@](C(=O)OC)(c1cc3c(cc1OC)N(C)[C@H]1[C@@](O)(C(=O)OC)[C@H](OC(C)=O)[C@]4(CC)C=CCN5CC[C@]31[C@@H]54)C2 [VINORELBINE]
Not Active: IC50 [1] | Ki [1] | IC50 [2] | IC50 [3] | IC50 [4] | Ki [4] | IC50 [5] | IC50 [6] | Ki [6] | IC50 [7] | IC50 [8] | IC50 [9] | Ki [9]

CC(C(=O)O)c1cccc(C(=O)c2ccccc2)c1 (stereo not drawn) [KETOPROFEN]
Not Active: IC50 [1] | Ki [1] | IC50 [2] | IC50 [3] | IC50 [4] | Ki [4] | IC50 [5] | IC50 [6] | Ki [6] | IC50 [7] | IC50 [8] | IC50 [9] | Ki [9]

O=c1ccc2ccccc2o1 [COUMARIN]
Not Active: IC50 [1] | Ki [1] | IC50 [2] | IC50 [3] | IC50 [4] | Ki [4] | IC50 [5] | IC50 [6] | Ki [6] | IC50 [7] | IC50 [8] | IC50 [9] | Ki [9]

CC1(C)O[C@@H]2C[C@H]3[C@@H]4C[C@H](F)C5=CC(=O)C=C[C@]5(C)[C@H]4[C@@H](O)C[C@]3(C)[C@]2(C(=O)CO)O1 [FLUNISOLIDE]
Not Active: IC50 [1] | Ki [1] | IC50 [2] | IC50 [3] | IC50 [4] | Ki [4] | IC50 [5] | IC50 [6] | Ki [6] | IC50 [7] | IC50 [8] | IC50 [9] | Ki [9]

CC1(C)O[C@@H]2C[C@H]3[C@@H]4C[C@H](F)C5=CC(=O)C=C[C@]5(C)[C@@]4(F)[C@@H](O)C[C@]3(C)[C@]2(C(=O)CO)O1 [FLUOCINOLONE ACETONIDE]
Not Active: IC50 [1] | Ki [1] | IC50 [2] | IC50 [3] | IC50 [4] | Ki [4] | IC50 [5] | IC50 [6] | Ki [6] | IC50 [7] | IC50 [8] | IC50 [9] | Ki [9]

N=C(Nc1ccccc1)Nc1ccccc1
Not Active: IC50 [1] | Ki [1] | IC50 [2] | IC50 [3] | IC50 [4] | Ki [4] | IC50 [5] | IC50 [6] | Ki [6] | IC50 [7] | IC50 [8] | IC50 [9] | Ki [9]

CC[C@@H](CO)NCCN[C@@H](CC)CO [ETHAMBUTOL]
Not Active: IC50 [1] | Ki [1] | IC50 [2] | IC50 [3] | IC50 [4] | Ki [4] | IC50 [5] | IC50 [6] | Ki [6] | IC50 [7] | IC50 [8] | IC50 [9] | Ki [9]

CN1C(=O)COc2c(C(=O)NC3CN4CCC3CC4)cc(Cl)cc21 (stereo not drawn) [AZASETRON]
Not Active: IC50 [1] | Ki [1] | IC50 [2] | IC50 [3] | IC50 [4] | Ki [4] | IC50 [5] | IC50 [6] | Ki [6] | IC50 [7] | IC50 [8] | IC50 [9] | Ki [9]

O=NN(CCCl)C(=O)NCCCl [CARMUSTINE]
Not Active: IC50 [1] | Ki [1] | IC50 [2] | IC50 [3] | IC50 [4] | Ki [4] | IC50 [5] | IC50 [6] | Ki [6] | IC50 [7] | IC50 [8]

O=C(C1CCCCC1)N1CC(=O)N2CCc3ccccc3C2C1 (stereo not drawn) [PRAZIQUANTEL]
Not Active: IC50 [1] | Ki [1] | IC50 [2] | IC50 [3] | IC50 [4] | Ki [4] | IC50 [5] | IC50 [6] | Ki [6] | IC50 [7] | IC50 [8] | IC50 [9] | Ki [9]

NC(=O)NO [HYDROXYUREA]
Not Active: IC50 [1] | Ki [1] | IC50 [2] | IC50 [3] | IC50 [4] | Ki [4] | IC50 [5] | IC50 [6] | Ki [6] | IC50 [7] | IC50 [8]

C/C=C/C[C@@H](C)[C@@H](O)[C@H]1C(=O)N[C@@H](CC)C(=O)N(C)CC(=O)N(C)[C@@H](CC(C)C)C(=O)N[C@@H](C(C)C)C(=O)N(C)[C@@H](CC(C)C)C(=O)N[C@@H](C)C(=O)N[C@H](C)C(=O)N(C)[C@@H](CC(C)C)C(=O)N(C)[C@@H](CC(C)C)C(=O)N(C)[C@@H](C(C)C)C(=O)N1C [CYCLOSPORINE]
Not Active: IC50 [1] | Ki [1] | IC50 [2] | IC50 [3] | IC50 [4] | Ki [4] | IC50 [5] | IC50 [6] | Ki [6] | IC50 [7] | IC50 [8]

C[C@@H]1C[C@@H]([C@H](O)CC2CC(=O)NC(=O)C2)C(=O)[C@@H](C)C1 [CYCLOHEXIMIDE]
Not Active: IC50 [1] | Ki [1] | IC50 [2] | IC50 [3] | IC50 [4] | Ki [4] | IC50 [5] | IC50 [6] | Ki [6] | IC50 [7] | IC50 [8]

CN(C)c1ccc(C(=C2C=CC(=[N+](C)C)C=C2)c2ccc(N(C)C)cc2)cc1.[Cl-] [GENTIAN VIOLET]
Not Active: IC50 [1] | Ki [1] | IC50 [2] | IC50 [4] | Ki [4] | IC50 [5] | IC50 [6] | Ki [6] | IC50 [7] | IC50 [8] | IC50 [9] | Ki [9]

CCn1cc(C(=O)O)c(=O)c2cc(F)c(N3CCN(C)CC3)cc21 [PEFLOXACIN]
Not Active: IC50 [1] | Ki [1] | IC50 [2] | IC50 [3] | IC50 [4] | Ki [4] | IC50 [5] | IC50 [6] | Ki [6] | IC50 [7] | IC50 [8]

S=C=Nc1cccc2ccccc12 [1-NAPHTHYLISOTHIOCYANATE]
Not Active: IC50 [1] | Ki [1] | IC50 [2] | IC50 [4] | Ki [4] | IC50 [5] | IC50 [6] | Ki [6] | IC50 [7] | IC50 [8] | IC50 [9] | Ki [9]

COc1ccccc1C(=O)N1CCC(Cc2ccccc2)CC1
Not Active: IC50 [1] | Ki [1] | IC50 [2] | IC50 [3] | IC50 [4] | Ki [4] | IC50 [5] | IC50 [6] | Ki [6] | IC50 [7] | IC50 [9] | Ki [9]

COc1ccc2cc([C@H](C)C(=O)O)ccc2c1 [NAPROXEN]
Not Active: IC50 [1] | Ki [1] | IC50 [2] | IC50 [3] | IC50 [4] | Ki [4] | IC50 [5] | IC50 [6] | Ki [6] | IC50 [7] | IC50 [8]
